The structures appear in SMILES notation. pIC50: −log10 of the molar value.

Test [1] deals with mice with pulmonary hypertension. Kind of test: Hypoxia (10% O2) pulmonary hypertension in mice. Type of test: in vivo. Conditions: S.C. 1.3 mg/Kg for 1 wk from wk 4 to wk 5, 10% O2. As for the experimental part:
Placebo and 2124 were injected S.C. (1.3 mg/Kg) for 1 wk from wk 4 to wk 5.

Test [2] has as its system Bovine pulmonary arteries. As to the kind of experiment: Smooth muscle protein expression in bovine pulmonary arteries incubated in Krebs buffer. As to conditions: 12 hr. As for the experimental part:
FIGS. 3A and 3B are graphs showing results for bovine pulmonary arteries that were incubated in Krebs buffer with and without G6PD inhibitor PD2958 (2958) and PD2124 (2124) for 12 hr. Vascular smooth cell-specific protein myocardin (MYOCD; FIG. 3A) and smooth muscle myosin heavy chain (MHY11; FIG. 3B) expression was increased by PD2958 (10 microM) and PD2124 (1 microM).
Bovine pulmonary arteries were incubated in Krebs buffer with and without G6PD inhibitor PD2958 (2958) and PD2124 (2124) for 12 hr. Vascular smooth cell-specific protein myocardin (MYOCD) and smooth muscle myosin heavy chain (MHY11) expression was increased by PD2958 (10 microM) and PD2124 (1 microM) (FIGS. 3A and 3B).

For test [3], the system named is Rat pulmonary artery smooth muscle cells. Kind of test: Cell number/proliferation by Cyquant assay. Format: cell-based. Conditions: 72 hr treatment, versus vehicle control. The method, then: (§1) FIGS. 4A and 4B are graphs showing results for rat pulmonary artery smooth muscle cells that were cultured in 15% DMEM media for 48 hr and cells were treated with newly synthesized G6PD drugs; PD109 (109), PD2124 (2124), PD2958 (2958) and PD4091 (4091) or vehicle control (Con) for 72 hr. Cell number/proliferation (FIG. 4A) and apoptosis (FIG. 4B) was determined by Cyquant and Caspase3/7 assay, respectively. Cell numbers were decreased by G6PD inhibitors (FIG. 4A). Cell apoptosis was increased by PD2958 (1 microM) N=5 in each group (FIG. 4B).
(§2) Rat pulmonary artery smooth muscle cells were cultured in 15% DMEM media for 48 hr and cells were treated with newly synthesized G6PD drugs; PD109 (109), PD2124 (2124), PD2958 (2958) and PD4091 (4091) or vehicle control (Con) for 72 hr. Cell number/proliferation and apoptosis was determined by Cyquant and Caspase3/7 assay, respectively. Cell numbers were decreased by G6PD inhibitors. Cell apoptosis was increased by PD2958 (1 microM) N=5 in each group (FIGS. 4A and 4B).

Test [4] deals with Bovine pulmonary artery rings. Kind of test: Relaxation of KCl pre-contracted bovine pulmonary artery rings. Conditions: pre-contracted with KCl (30 mM), Krebs buffer. The method, then:
FIG. 6 is a graph showing bovine pulmonary artery rings that were incubated in Krebs buffer and pre-contracted with KCl (30 mM). These pre-contracted rings relaxed by G6PD inhibitors; PD109 (109), PD2124 (2124), PD2958 (2958) and PD4091 (4091) or dehydroepiandrosterone (DHEA).
Bovine pulmonary artery rings were incubated in Krebs buffer and pre-contracted with KCl (30 mM). These pre-contracted rings relaxed by G6PD inhibitors; PD109 (109), PD2124 (2124), PD2958 (2958) and PD4091 (4091) or dehydroepiandrosterone (DHEA) (FIG. 6).

Another test deals with G6PD (Homo sapiens, UniProt P11413). Kind of test: G6PD activity inhibition (enzyme assay).
In test [5] the test system is Aortic rings of wild-type mice. As to the kind of experiment: Relaxation of KCl pre-contracted aortic rings, wild-type mice. As to conditions: KCl (30 mM). As for the experimental part: (§3) FIG. 7 is a graph showing aortic rings of wild-type and G6PD-deficient pre-contracted with KCl (30 mM).
(§4) Aortic rings of wild-type and G6PD-deficient pre-contracted with KCl (30 mM).

The subject of test [6] is Aortic rings of G6PD-deficient mice. Kind of test: Relaxation of KCl pre-contracted aortic rings, G6PD-deficient mice. Conditions: KCl (30 mM). The method, then: as §3, §4
Test [7] relates to Rat pulmonary artery smooth muscle cells. As to the kind of experiment: Apoptosis by Caspase3/7 assay. Format: cell-based. Conditions: 1 microM, 72 hr, N=5. As for the experimental part:
as §1, §2

The test system is the same in test [8]. Kind of test: Cell migration. Type of test: cell-based. Conditions: 1 microM, 72 hr, N=5. As for the experimental part:
FIGS. 5A and 5B are images (FIG. 5A) and a graph (FIG. 5B) showing rat pulmonary artery smooth muscle cells that were cultured in 15% DMEM media for 48 hr and cells were treated with newly synthesized G6PD drugs; PD2958 (2958) or vehicle control (Con) for 72 hr. Cells migration was determined. Cell migration was abrogated by PD2958 (1 microM). N=5 in each group.
Rat pulmonary artery smooth muscle cells were cultured in 15% DMEM media for 48 hr and cells were treated with newly synthesized G6PD drugs; PD2958 (2958) or vehicle control (Con) for 72 hr. Cells migration was determined. Cell migration was abrogated by PD2958 (1 microM). N=5 in each group (FIGS. 5A and 5B).

Chain of G6PD (P11413 whole entry): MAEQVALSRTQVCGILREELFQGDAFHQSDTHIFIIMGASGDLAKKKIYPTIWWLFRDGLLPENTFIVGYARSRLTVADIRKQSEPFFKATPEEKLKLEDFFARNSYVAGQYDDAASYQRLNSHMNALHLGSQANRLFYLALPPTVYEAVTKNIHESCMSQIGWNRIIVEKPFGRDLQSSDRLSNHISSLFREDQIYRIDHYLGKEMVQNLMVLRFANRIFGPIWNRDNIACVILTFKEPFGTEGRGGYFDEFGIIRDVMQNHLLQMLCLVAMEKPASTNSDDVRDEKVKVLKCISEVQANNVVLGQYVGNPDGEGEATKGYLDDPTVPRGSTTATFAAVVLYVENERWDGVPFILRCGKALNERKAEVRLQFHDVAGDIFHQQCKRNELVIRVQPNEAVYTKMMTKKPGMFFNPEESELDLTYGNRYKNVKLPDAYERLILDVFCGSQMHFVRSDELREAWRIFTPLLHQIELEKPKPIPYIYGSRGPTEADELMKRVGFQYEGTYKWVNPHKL

For orientation: pIC50 means the negative decadic logarithm of the IC50, by convention in mol/L. Turning to `C[C@]12CC[C@H](O)C[C@@H]1CC[C@@H]1[C@@H]2CC[C@]2(C)[C@@H](C(=O)CO)CC[C@@H]12` [PD2124, (3β,5α)-3,21-Dihydroxypregnan-20-one], in [1], the TPR entry is “reduced and reversed”; the arterial elastance entry is “reduced and reversed”; the cardiac index entry is recorded as “increased”; the “left ventricle (LV) stiffness” value is “reduced and reversed”. Further, in test [1], the “pulmonary resistance determined as PAAT-to-ET ratio” value was “reduced and reversed”. Moreover, in test [2] (1 microM), the “myocardin (MYOCD) expression” value is “increased” and the “smooth muscle myosin heavy chain (MHY11) expression” value is “increased”. The Cell number/proliferation entry in test [3] is on record as “decreased”. The “relaxation of pre-contracted pulmonary artery rings” value in test [4] is given as “relaxed”. Also, the pIC50 on G6PD was 5.00 to 6.00.
As for `CCNC(=O)N[C@H]1CC[C@@]2(C)[C@@H](CC[C@@H]3[C@@H]2CC[C@]2(C)C(=O)CC[C@@H]32)C1` [PD2958, N-Ethyl-N′-[(3β,5α)-17-oxoandrostan-3-yl]urea], in test [2] (10 microM), the “myocardin (MYOCD) expression” value is reported as “increased”. The “smooth muscle myosin heavy chain (MHY11) expression” value in test [2] (10 microM) is reported as “increased”. Moreover, the “relaxation of pre-contracted aortic rings” value is reported as “relaxed in dose-dependent manner” in [5] and “not G6PD-deficient mice were relaxed” in test [6]. Further, the Cell number/proliferation result in test [3] is reported as “decreased”. For the same molecule, the Cell apoptosis result in test [7] is “increased”. In addition, the “relaxation of pre-contracted pulmonary artery rings” value in test [4] is reported as “relaxed”. For the same molecule, the Cell migration entry in test [8] is “abrogated”. The negative logarithm of the IC50 (pIC50) against G6PD was 5.00 to 6.00.
Molecule `CC(=O)[C@H]1CC[C@H]2[C@@H]3CC[C@H]4C[C@@H](NS(C)(=O)=O)CC[C@]4(C)[C@H]3CC[C@]12C` [PD4091, N-[(3β,5α)-20-Oxopregnan-3-yl]methanesulfonamide] had a pIC50 on G6PD of 5.00 to 6.00.
`C[C@]12CC[C@H](O)CC1=CC[C@@H]1[C@@H]2CC[C@]2(C)C(=O)CC[C@@H]12` [PD109, 5-Androsten-3-beta-hydroxy-17-one (Dehydroepiandrosterone), reference compound]: the Cell number/proliferation result in test [3] is on record as “decreased”. For the same molecule, the “relaxation of pre-contracted pulmonary artery rings” value in [4] is given as “relaxed”.

The values are drawn from patent US11185552B2, “Inhibitors of glucose-6-phosphate dehydrogenase for treating cardiovascular and pulmonary conditions” (ICHOR, LLC., priority 2016, dated 2021).
